From patent publication EP3046573B1, “AMYLIN ANALOGUES” (Zealand Pharma A/S, priority 2013, dated 2015)
pEC50: −log10 of the molar value. Read-outs that look alike come from different tables or passages of the source. Numbered stars: 1 amine (or outer) side, 2 acyl side, 3 side chain; on linkers, the order of the positions; unused ones are H or OH. Bridge positions count the residues as written; N and C are the ends. Square brackets hold non-standard residues; d marks the D form. Peptide text beside a SMILES is read from it. * marks the point of attachment. Pro(trans-4-Ph) = O=C(O)[C@@H]1C[C@@H](c2ccccc2)CN1; C20 diacid = O=C(O)CCCCCCCCCCCCCCCCCCC(=O)*; γGlu = O=C(O)[C@H](CCC(=O)[*:2])N[*:1]; Hyp = O=C(O)[C@@H]1C[C@@H](O)CN1; NMeI = CC[C@H](C)[C@H](NC)C(=O)O; Sar = CNCC(=O)O

Assays:
[1] = target: T1, human amylin receptor 3 (hAMYR3) consisting of hCTR2 co-expressed with human Receptor Activity Modifying Protein 3 (hRAMP3) (Homo sapiens, UniProt O60896+P30988); test: hAMYR3 assay: induction of cAMP (AlphaScreen cAMP Assay kit) in COS7 cells expressing hAMYR3; assay type: cell-based
T1 construct: expressed in transfected cells
T1 sequence (P30988 25-474): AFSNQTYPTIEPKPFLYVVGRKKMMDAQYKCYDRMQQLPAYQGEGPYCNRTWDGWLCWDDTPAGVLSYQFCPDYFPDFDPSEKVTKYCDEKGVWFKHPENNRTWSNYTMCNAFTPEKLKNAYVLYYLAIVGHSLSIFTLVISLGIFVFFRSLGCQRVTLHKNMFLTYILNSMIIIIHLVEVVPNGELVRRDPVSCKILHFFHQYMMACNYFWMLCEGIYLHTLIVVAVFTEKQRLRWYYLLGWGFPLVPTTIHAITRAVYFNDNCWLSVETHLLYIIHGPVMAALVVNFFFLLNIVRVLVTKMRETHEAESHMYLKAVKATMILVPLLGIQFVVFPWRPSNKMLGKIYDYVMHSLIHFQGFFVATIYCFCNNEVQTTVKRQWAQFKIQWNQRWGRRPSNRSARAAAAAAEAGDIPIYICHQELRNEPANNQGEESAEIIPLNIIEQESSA
T1 sequence (O60896 24-148 partner): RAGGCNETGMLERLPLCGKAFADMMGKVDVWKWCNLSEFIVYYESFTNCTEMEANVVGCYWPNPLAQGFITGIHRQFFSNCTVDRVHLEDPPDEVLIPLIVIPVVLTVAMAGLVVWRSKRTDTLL
Source text: The cell line COS7, originating from African Green Monkey kidney fibroblast cells, was used for establishment of the stable cell lines described below. The COS7 cellular background was used due to it being RAMP naive, and as such it provides the best available system for testing of the monomeric hCTR and different heterodimeric amylin receptor subtypes functionally generated by introduction of the individual RAMPs.
A cell line expressing the human amylin receptor 3 (hAMYR3) was generated in the COS7 cellular background as stable clones. In brief, hCTR2 (GI:4502547) and hRAMP3 (GI:118572586) were amplified by PCR using primers encoding terminal restriction sites for subcloning. The 5'-end primers additionally encoded a near Kozak consensus sequence to ensure efficient translation. The fidelity of the DNA encoding the receptor was confirmed by DNA sequencing. The PCR products encoding the receptor were subcloned into a proprietary tri-cistronic mammalian expression vector with RAMP3, hCTR2 and neomycin (G418) resistance marker. The mammalian expression vector encoding the receptor was transfected into COS7 cells by a standard liposome transfection method. 48 hours post-transfection, cells were seeded for limited dilution cloning and selected with 1 mg/ml G418 in the culture medium. After 3 weeks, surviving colonies of hAMY3R-expressing cells were picked, propagated and tested in the amylin efficacy assay as described in Example 3 below. The functional generation of the amylin receptor phenotype was verified in the efficacy assay by a left-shifted efficacy response to amylin relative to monomeric calcitonin receptor, and one hAMYR3-expressing clone was chosen for compound profiling.
In vitro activity of test peptides at the hCTR2 and hAMYR3 receptors was assessed by measuring the induction of cAMP following stimulation of the receptor by pramlintide or peptides of the invention using the AlphaScreen® cAMP Assay kit from Perkin-Elmer.
Briefly, COS7 cells expressing hCTR2 (see Example 2, above) were seeded at 30-40,000 cells per well in 96-well microtiter plates coated with 0.01 % poly-L-lysine, and grown for 1 day in culture in 100 µl growth medium [DMEM, 10% FCS, Penicillin (100 IU/ml), Streptomycin (100 µg/ml)]. On the day of analysis, growth medium was removed and the cells were washed once with 200 µl Tyrode buffer [Tyrode's Salts (9.6 g/l), 10 mM HEPES, pH 7.4]. Cells were incubated in 100 µl Tyrode buffer containing increasing concentrations of test peptides, 100 µM IBMX and 0.1% casein for 15 min at 37° C. The reaction was stopped by carefully decanting off the compound/buffer medium and replacing it with lysis/detection buffer (80 µl 0.1 % w/v BSA, 5 mM HEPES, 0.3 % v/v Tween-20 in deionized water). After incubation at room temperature for 10 min., the cAMP content of the resulting cell lysate was estimated according to the AlphaScreen® cAMP Assay manufacturer's instructions. EC50 values and relative efficacy values (in %) compared to reference peptide (Pramlintide) were estimated by computer-aided curve fitting using the 4-parameter logistic (4PL) non-linear model.
The in vitro activity results (expressed as EC50 values) for peptides of the invention and for Pramlintide (reference peptide) are summarized in Table 2, below.

[2] = Solubility assessment (turbidity absorbance at 325 nm); assay type: physicochemical; details: stock 2 mg/ml diluted 1:1, ambient temperature (typically 25°C), n=1
Outline: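 Peptide stock (2 mg/ml) in water acidified to pH 2.5 with HCl was diluted 1:1 into 100 mM acetate (pH 4.0, 5.0), histidine (pH 6.0, 7.0) or phosphate (pH 6.0, 7.0, 7.5) buffer. A280 and A325 were read at about 25°C, n=1. A325 ≤ 0.02 meant solubility ≥ 1 mg/ml.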

[3] = target: T2, human calcitonin receptor (hCTR2) (Homo sapiens, UniProt P30988); test: hCTR2 assay: induction of cAMP (AlphaScreen cAMP Assay kit) in COS7 cells expressing hCTR2; assay type: cell-based; details: cAMP induction in COS7 cells expressing hCTR2; average of a minimum of 3 determinations; read-out: hCTR2 EC50
T2 construct: expressed in transfected cells
T2 sequence (P30988 25-474): T1 sequence (P30988 25-474)
Outline: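 Functional agonism is measured as cAMP accumulation in a COS7 line stably transfected with hCTR2, lacking endogenous RAMPs. Peptides act for 15 min at 37° C with IBMX present, and curves are fitted with a 4-parameter logistic model.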

[4] = cAMP induction in COS7 cells expressing hAMYR3, average of a minimum of 3 determinations, read-out: hAMY R3 EC50

Row | SMILES | pEC50 [1] | Solubility, Acetate buffer pH 4 ([2]; 100 mM acetate buffer pH 4.0) | Solubility, Acetate buffer pH 5 ([2]; 100 mM acetate buffer pH 5.0) | Solubility, Histidine buffer pH 6 ([2]; 100 mM histidine buffer pH 6.0) | Solubility, Histidine buffer pH 7 ([2]; 100 mM histidine buffer pH 7.0) | Solubility, Phosphate buffer pH 6 ([2]; 100 mM phosphate buffer pH 6.0) | Solubility, Phosphate buffer pH 7 ([2]; 100 mM phosphate buffer pH 7.0) | Solubility, Phosphate buffer pH 7.5 ([2]; 100 mM phosphate buffer pH7.5) | pEC50 [1, 4] | pEC50 [3]
1 | CC[C@H](C)[C@@H](C(=O)N[C@@H](CC(C)C)C(=O)N[C@@H](CO)C(=O)N[C@@H](CO)C(=O)N[C@H](C(=O)N[C@@H](CC(N)=O)C(=O)N[C@H](C(=O)NCC(=O)N[C@@H](CO)C(=O)N[C@@H](CC(N)=O)C(=O)N[C@H](C(=O)N1CCC[C@H]1C(N)=O)[C@@H](C)O)C(C)C)[C@@H](C)O)N(C)C(=O)[C@H](C)NC(=O)CN(C)C(=O)[C@H](Cc1ccccc1)NC(=O)[C@H](CC(N)=O)NC(=O)[C@H](CC(N)=O)NC(=O)[C@H](CO)NC(=O)[C@H](CO)NC(=O)[C@H](CCCNC(=N)N)NC(=O)[C@H](Cc1c[nH]cn1)NC(=O)[C@H](CC(C)C)NC(=O)[C@H](Cc1ccccc1)NC(=O)[C@H](CCC(=O)O)NC(=O)[C@H](C)NC(=O)[C@H](CC(C)C)NC(=O)[C@H](CCCNC(=N)N)NC(=O)[C@H](CCC(N)=O)NC(=O)[C@@H](NC(=O)[C@H](C)NC(=O)[C@@H]1CSSC[C@H](NC(=O)[C@H](CCCNC(=N)N)NC(=O)[C@H](CCCNC(=N)N)NC(=O)CC[C@H](NC(=O)CCCCCCCCCCCCCCCCCCC(=O)O)C(=O)O)C(=O)N[C@@H](CC(N)=O)C(=O)N[C@@H]([C@@H](C)O)C(=O)N[C@@H](C)C(=O)N[C@@H]([C@@H](C)O)C(=O)N1)[C@@H](C)O [Compound 83, [19CD]-isoGlu-RRC()NTATC()ATQRLAEFLHRSSNNF-Gly(Me)-A-Ile(Me)-LSSTNVGSNTP-NH2] ({C20 diacid-γGlu}-RRCNTATCATQRLAEFLHRSSNNF[Sar]A[NMeI]LSSTNVGSNTP-NH2; disulfide 3-8) | 10.02 | SS (SS indicates solubility ≥ 1mg/ml) | SS (SS indicates solubility ≥ 1mg/ml) | SS (SS indicates solubility ≥ 1mg/ml) | SS (SS indicates solubility ≥ 1mg/ml) | SS (SS indicates solubility ≥ 1mg/ml) | SS (SS indicates solubility ≥ 1mg/ml) | SS (SS indicates solubility ≥ 1mg/ml) | – | –
2 | CC[C@H](C)[C@@H](C(=O)N[C@@H](CC(C)C)C(=O)N[C@@H](CO)C(=O)N[C@@H](CO)C(=O)N[C@H](C(=O)N[C@@H](CC(N)=O)C(=O)N[C@H](C(=O)NCC(=O)N[C@@H](CO)C(=O)N[C@@H](CC(N)=O)C(=O)N[C@H](C(=O)N1C[C@H](O)C[C@H]1C(N)=O)[C@@H](C)O)C(C)C)[C@@H](C)O)N(C)C(=O)CN(C)C(=O)[C@H](Cc1ccccc1)NC(=O)[C@H](CC(N)=O)NC(=O)[C@H](CC(N)=O)NC(=O)[C@H](CO)NC(=O)[C@H](CO)NC(=O)[C@H](CCCNC(=N)N)NC(=O)[C@H](Cc1c[nH]cn1)NC(=O)[C@H](CC(C)C)NC(=O)[C@H](Cc1ccccc1)NC(=O)[C@H](CCC(=O)O)NC(=O)[C@H](C)NC(=O)[C@H](CC(C)C)NC(=O)[C@H](CCCNC(=N)N)NC(=O)[C@H](CCC(N)=O)NC(=O)[C@@H](NC(=O)[C@H](C)NC(=O)[C@@H]1CSSC[C@H](NC(=O)[C@H](CCCNC(=N)N)NC(=O)CC[C@H](NC(=O)CCCCCCCCCCCCCCCCCCC(=O)O)C(=O)O)C(=O)N[C@@H](CC(N)=O)C(=O)N[C@@H]([C@@H](C)O)C(=O)N[C@@H](C)C(=O)N[C@@H]([C@@H](C)O)C(=O)N1)[C@@H](C)O [Compound 106, [19CD]-isoGlu-RC()NTATC()ATQRLAEFLHRSSNNF-Gly(Me)-Ile(Me)-LSSTNVGSNT-Hyp-NH2] ({C20 diacid-γGlu}-RCNTATCATQRLAEFLHRSSNNF[Sar][NMeI]LSSTNVGSNT[Hyp]-NH2; disulfide 2-7) | – | – | – | – | – | – | – | – | 9.85 | 9.92
3 | CC[C@H](C)[C@@H](C(=O)N[C@@H](CC(C)C)C(=O)N[C@@H](CO)C(=O)N[C@@H](CO)C(=O)N[C@H](C(=O)N[C@@H](CC(N)=O)C(=O)N[C@H](C(=O)NCC(=O)N[C@@H](CO)C(=O)N[C@@H](CC(N)=O)C(=O)N[C@H](C(=O)N1C[C@H](c2ccccc2)C[C@H]1C(N)=O)[C@@H](C)O)C(C)C)[C@@H](C)O)N(C)C(=O)CN(C)C(=O)[C@H](Cc1ccccc1)NC(=O)[C@H](CC(N)=O)NC(=O)[C@H](CC(N)=O)NC(=O)[C@H](CO)NC(=O)[C@H](CO)NC(=O)[C@H](CCCNC(=N)N)NC(=O)[C@H](Cc1c[nH]cn1)NC(=O)[C@H](CC(C)C)NC(=O)[C@H](Cc1ccccc1)NC(=O)[C@H](CCC(=O)O)NC(=O)[C@H](C)NC(=O)[C@H](CC(C)C)NC(=O)[C@H](CCCNC(=N)N)NC(=O)[C@H](CCC(N)=O)NC(=O)[C@@H](NC(=O)[C@H](C)NC(=O)[C@@H]1CSSC[C@H](NC(=O)[C@H](CCCNC(=N)N)NC(=O)CC[C@H](NC(=O)CCCCCCCCCCCCCCCCCCC(=O)O)C(=O)O)C(=O)N[C@@H](CC(N)=O)C(=O)N[C@@H]([C@@H](C)O)C(=O)N[C@@H](C)C(=O)N[C@@H]([C@@H](C)O)C(=O)N1)[C@@H](C)O [Compound 113, [19CD]-isoGlu-RC()NTATC()ATQRLAEFLHRSSNNF-Gly(Me)-Ile(Me)-LSSTNVGSNT-Php-NH2] ({C20 diacid-γGlu}-RCNTATCATQRLAEFLHRSSNNF[Sar][NMeI]LSSTNVGSNT[Pro(trans-4-Ph)]-NH2; disulfide 2-7) | – | – | – | – | – | – | – | – | 9.72 | 9.77
